From patent US10800741B2 (ANCUREALL PHARMACEUTICAL (SHANGHAI) CO., LTD., priority 2017, dated 2020)

Experiments:
Assay in all cases: KINOMEscan in vitro binding to 468 labeled protein kinases
protein kinases [1] = biological target: T1, protein kinases (Homo sapiens, UniProt P00519, E255K); details: ABL1(E255K)-phosphorylated, read-out: Test compound/solvent control (%)
T1 construct: purchased Discovery X company (USA), KINOMEscan screening platform
Method: (§1) Test Example 6 Determination of Binding Affinity of the Present Compounds on Protein Kinases In Vitro
(§2) KINOMEscan screening platform of Discovery X company (USA) was used to identify the binding targets of the present compounds to protein kinases. Compound 66 of the present invention was dissolved in DMSO (Sigma Aldrich) at concentrations of 1000 nM, 10 nM and 1 nM, and then was subjected to in vitro binding reaction with 468 labeled protein kinases. Two samples were taken in parallel for each assay sample.
(§3) The lower the percentage of the test compound to the solvent control, the stronger the binding affinity of the test compound to the protein kinase in vitro.

protein kinases [2] = biological target: T2, protein kinases (Homo sapiens, UniProt P04629); details: TRKA (NTRK1), read-out: Test compound/solvent control (%)
T2 construct: purchased Discovery X company (USA), KINOMEscan screening platform
T2 sequence (P04629 33-796): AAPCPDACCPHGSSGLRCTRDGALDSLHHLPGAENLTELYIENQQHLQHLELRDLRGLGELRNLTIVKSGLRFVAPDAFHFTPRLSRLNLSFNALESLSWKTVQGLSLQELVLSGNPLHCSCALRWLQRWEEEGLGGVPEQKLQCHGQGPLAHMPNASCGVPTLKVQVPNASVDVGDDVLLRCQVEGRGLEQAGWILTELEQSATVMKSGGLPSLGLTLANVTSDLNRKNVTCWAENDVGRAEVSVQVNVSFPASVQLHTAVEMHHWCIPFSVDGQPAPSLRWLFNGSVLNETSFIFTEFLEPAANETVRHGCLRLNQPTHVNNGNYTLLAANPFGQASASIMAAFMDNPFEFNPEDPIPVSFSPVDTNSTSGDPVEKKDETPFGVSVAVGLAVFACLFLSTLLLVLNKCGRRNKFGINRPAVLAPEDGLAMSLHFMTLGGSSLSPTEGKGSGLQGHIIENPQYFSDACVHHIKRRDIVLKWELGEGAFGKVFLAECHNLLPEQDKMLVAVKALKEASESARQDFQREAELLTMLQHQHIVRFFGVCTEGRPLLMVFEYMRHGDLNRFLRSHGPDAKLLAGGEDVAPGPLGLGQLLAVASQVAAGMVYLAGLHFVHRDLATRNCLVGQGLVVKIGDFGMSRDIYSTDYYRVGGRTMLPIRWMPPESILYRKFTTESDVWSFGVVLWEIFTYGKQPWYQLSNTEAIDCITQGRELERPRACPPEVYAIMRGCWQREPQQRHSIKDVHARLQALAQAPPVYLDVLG
Method: as §1, §2, §3

protein kinases [3] = biological target: T3, protein kinases (Homo sapiens, UniProt P21802); details: FGFR2, read-out: Test compound/solvent control (%)
T3 construct: purchased Discovery X company (USA), KINOMEscan screening platform
T3 sequence (P21802 22-821): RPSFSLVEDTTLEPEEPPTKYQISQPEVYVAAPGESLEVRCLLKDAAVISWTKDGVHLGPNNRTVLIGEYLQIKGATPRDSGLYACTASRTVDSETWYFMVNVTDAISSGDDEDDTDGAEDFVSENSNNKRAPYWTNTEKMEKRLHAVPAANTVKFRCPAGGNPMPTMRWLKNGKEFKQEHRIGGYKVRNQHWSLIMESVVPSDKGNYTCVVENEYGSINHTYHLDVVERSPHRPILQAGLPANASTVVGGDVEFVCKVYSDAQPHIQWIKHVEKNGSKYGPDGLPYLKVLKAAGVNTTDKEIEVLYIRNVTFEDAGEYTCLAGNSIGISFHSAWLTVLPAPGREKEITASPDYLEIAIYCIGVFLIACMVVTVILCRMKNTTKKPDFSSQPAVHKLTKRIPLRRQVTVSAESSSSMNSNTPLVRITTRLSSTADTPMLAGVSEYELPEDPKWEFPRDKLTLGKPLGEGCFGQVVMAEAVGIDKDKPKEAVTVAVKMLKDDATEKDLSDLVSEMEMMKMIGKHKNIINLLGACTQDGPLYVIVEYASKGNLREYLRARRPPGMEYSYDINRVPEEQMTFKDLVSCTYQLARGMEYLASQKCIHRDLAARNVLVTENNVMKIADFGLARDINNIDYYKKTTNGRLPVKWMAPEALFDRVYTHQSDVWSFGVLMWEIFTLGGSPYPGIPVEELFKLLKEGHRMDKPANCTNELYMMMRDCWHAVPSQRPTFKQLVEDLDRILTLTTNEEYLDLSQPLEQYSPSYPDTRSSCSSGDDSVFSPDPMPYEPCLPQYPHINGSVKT
Method: as §1, §2, §3

protein kinases [4] = biological target: T4, protein kinases (Homo sapiens, UniProt P30530); details: AXL, read-out: Test compound/solvent control (%)
T4 construct: purchased Discovery X company (USA), KINOMEscan screening platform
T4 sequence (P30530 26-894): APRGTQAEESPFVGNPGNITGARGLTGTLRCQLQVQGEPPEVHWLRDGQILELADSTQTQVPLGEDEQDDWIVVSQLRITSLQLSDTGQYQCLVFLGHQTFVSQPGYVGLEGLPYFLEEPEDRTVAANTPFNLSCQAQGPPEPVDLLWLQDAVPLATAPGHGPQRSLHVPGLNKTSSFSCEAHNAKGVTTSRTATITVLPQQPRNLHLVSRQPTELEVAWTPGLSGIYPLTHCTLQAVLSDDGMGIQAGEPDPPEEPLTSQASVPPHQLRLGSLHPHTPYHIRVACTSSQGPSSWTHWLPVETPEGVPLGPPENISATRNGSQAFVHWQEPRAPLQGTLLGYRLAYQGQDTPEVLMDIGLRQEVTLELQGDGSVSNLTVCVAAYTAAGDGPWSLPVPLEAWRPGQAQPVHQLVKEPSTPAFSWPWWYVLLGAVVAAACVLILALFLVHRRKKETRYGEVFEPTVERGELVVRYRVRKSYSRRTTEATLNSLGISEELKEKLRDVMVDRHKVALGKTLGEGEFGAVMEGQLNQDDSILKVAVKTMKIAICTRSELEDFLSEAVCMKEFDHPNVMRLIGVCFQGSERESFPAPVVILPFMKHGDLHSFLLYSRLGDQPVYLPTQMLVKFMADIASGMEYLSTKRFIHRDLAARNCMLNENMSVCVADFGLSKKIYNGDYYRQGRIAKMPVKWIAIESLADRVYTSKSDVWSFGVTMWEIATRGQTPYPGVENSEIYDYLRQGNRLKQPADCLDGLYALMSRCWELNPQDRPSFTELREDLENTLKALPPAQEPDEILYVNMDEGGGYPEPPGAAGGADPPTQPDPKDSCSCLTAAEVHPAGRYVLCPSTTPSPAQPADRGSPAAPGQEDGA
Method: as §1, §2, §3

protein kinases [5] = biological target: T5, protein kinases (Homo sapiens, UniProt P36888, K663Q); details: FLT3(K663Q), read-out: Test compound/solvent control (%)
T5 construct: purchased Discovery X company (USA), KINOMEscan screening platform
T5 sequence (P36888 27-993 K663Q): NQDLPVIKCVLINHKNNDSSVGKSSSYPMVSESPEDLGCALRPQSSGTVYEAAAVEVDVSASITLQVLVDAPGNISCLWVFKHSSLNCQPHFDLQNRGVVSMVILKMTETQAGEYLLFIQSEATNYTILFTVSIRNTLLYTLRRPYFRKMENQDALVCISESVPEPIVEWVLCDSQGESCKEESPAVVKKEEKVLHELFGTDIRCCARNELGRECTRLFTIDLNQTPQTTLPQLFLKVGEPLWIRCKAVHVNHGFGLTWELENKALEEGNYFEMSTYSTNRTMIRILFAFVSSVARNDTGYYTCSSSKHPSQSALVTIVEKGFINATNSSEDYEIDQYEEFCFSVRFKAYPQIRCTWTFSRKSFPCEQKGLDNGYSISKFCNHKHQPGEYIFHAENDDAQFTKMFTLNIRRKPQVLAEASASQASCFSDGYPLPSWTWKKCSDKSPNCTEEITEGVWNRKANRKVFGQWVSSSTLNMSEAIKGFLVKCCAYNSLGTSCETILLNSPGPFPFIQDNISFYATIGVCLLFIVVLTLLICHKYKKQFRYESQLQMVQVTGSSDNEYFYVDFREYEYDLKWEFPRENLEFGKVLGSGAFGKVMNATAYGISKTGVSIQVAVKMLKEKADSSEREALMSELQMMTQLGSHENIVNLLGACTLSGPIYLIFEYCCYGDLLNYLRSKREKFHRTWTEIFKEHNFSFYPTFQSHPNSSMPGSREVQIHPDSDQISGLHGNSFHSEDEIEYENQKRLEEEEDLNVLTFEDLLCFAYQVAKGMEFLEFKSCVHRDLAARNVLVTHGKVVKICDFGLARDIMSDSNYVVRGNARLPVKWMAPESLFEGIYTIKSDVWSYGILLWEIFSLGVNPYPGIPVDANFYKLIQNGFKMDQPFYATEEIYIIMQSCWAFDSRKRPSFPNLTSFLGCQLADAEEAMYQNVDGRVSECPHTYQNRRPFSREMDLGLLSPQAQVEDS
Method: as §1, §2, §3

T1 sequence (P00519 whole entry E255K): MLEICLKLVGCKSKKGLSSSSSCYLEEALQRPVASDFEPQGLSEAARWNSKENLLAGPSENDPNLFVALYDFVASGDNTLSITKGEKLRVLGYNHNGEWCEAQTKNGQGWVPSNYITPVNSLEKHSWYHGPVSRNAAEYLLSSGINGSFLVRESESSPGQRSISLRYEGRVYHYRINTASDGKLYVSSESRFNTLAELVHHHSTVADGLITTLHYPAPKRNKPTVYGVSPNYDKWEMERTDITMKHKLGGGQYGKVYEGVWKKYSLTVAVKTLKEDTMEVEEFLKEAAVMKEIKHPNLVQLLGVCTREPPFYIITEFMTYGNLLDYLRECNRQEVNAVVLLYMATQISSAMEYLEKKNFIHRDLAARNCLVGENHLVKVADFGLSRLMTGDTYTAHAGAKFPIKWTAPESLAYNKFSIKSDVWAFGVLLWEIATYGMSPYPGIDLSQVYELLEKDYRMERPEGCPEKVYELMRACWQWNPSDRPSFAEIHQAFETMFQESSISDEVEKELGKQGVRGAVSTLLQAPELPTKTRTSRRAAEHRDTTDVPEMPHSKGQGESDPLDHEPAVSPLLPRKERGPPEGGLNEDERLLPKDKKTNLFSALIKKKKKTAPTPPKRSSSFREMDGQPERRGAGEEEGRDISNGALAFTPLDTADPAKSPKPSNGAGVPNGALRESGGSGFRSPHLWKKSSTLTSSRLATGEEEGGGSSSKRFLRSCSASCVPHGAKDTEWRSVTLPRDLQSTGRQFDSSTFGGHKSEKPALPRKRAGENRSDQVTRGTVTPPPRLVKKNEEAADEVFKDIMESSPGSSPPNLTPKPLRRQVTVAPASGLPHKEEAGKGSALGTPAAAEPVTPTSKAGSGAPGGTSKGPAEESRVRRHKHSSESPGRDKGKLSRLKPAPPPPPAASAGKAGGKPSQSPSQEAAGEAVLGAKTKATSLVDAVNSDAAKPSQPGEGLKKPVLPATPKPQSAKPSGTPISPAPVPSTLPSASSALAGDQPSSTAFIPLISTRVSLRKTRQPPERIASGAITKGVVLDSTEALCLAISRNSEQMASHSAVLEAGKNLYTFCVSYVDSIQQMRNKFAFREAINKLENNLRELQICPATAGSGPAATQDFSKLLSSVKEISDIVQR

Structure (SMILES): COCCOc1cc2nccc(Oc3ccc(NC(=O)Nc4cc(C(C)(C)C)n[nH]4)c(Cl)c3)c2cc1NC(C)=O [Compound 66, N-[4-{4-[3-(5-tert-butyl-2H-pyrazol-3-yl)-ureido]-3-chloro-phenoxy}-7-(2-methoxy-ethoxy)-quinolin-6-yl]-acetamide]
- remaining binding at 0.001 µM (protein kinases [1]; 1 nM): 50%
- remaining binding at 0.01 µM (protein kinases [1]; 10 nM): 7.6%
- remaining binding at 1 µM (protein kinases [1]; 1000 nM): 0.1%
- remaining binding at 0.001 µM (protein kinases [2]; 1 nM): 48%
- remaining binding at 0.01 µM (protein kinases [2]; 10 nM): 5.5%
- remaining binding at 1 µM (protein kinases [2]; 1000 nM): 0.2%
- remaining binding at 0.001 µM (protein kinases [3]; 1 nM): 93%
- remaining binding at 0.01 µM (protein kinases [3]; 10 nM): 71%
- remaining binding at 1 µM (protein kinases [3]; 1000 nM): 0.25%
- remaining binding at 0.001 µM (protein kinases [4]; 1 nM): 53%
- remaining binding at 0.01 µM (protein kinases [4]; 10 nM): 7.2%
- remaining binding at 1 µM (protein kinases [4]; 1000 nM): 4.1%
- remaining binding at 0.001 µM (protein kinases [5]; 1 nM): 89%
- remaining binding at 0.01 µM (protein kinases [5]; 10 nM): 22%
- remaining binding at 1 µM (protein kinases [5]; 1000 nM): 3.2%
